In US20080261973A1, “Sulphonamidoaniline Derivatives Being Janus Kinase Inhibitors” (Novartis AG, priority 2005, published 2008) one finds melting point data, which are given here for 14 molecules.

For orientation: melting point means the temperature, or range, at which the solid turns liquid. Regarding `CC(C)(C)CNc1nc(Nc2cccc(NS(C)(=O)=O)c2)nc2[nH]cnc12` [Example 50, N-{3-[6-(2,2-Dimethyl-propylamino)-9H-purin-2-ylamino]-phenyl}-methanesulfonamide], the melting point is 270 to 273 °C.
With `C[C@H](Nc1nc(Nc2cccc(NS(C)(=O)=O)c2)nc2[nH]ccc12)C(C)(C)C` [Example 51, N-{3-[4-((S)-1,2,2-Trimethyl-propylamino)-7H-pyrrolo[2,3-d]pyrimidin-2-ylamino]-phenyl}-methanesulfonamide], the melting point was in the range of 128 to 132 °C.
`CC(=O)Nc1cccc(CNc2nc(Nc3cccc(NS(C)(=O)=O)c3)nc3[nH]cnc23)c1` [Example 64, N-(3-{[2-(3-Methanesulfonylamino-phenylamino)-9H-purin-6-ylamino]-methyl}-phenyl)-acetamide] came in with a melting point of 159 to 162 °C.
As for `CCC(C)(C)[C@@H](C)Nc1nc(Nc2cccc(NS(C)(=O)=O)c2)nc2[nH]cnc12` [Example 65, N-{3-[6-((R)-1,2,2-Trimethyl-butylamino)-9H-purin-2-ylamino]-phenyl}-methanesulfonamide], the figure is 143 to 146 °C.
The molecule `CS(=O)(=O)Nc1cccc(Nc2nc(NCc3cccc(N)c3)c3nc[nH]c3n2)c1` [Example 72, N-{3-[6-(3-Amino-benzylamino)-9H-purin-2-ylamino]-phenyl}-methanesulfonamide] returned a melting point of 170 to 173 °C.
As for `CS(=O)(=O)Nc1cccc(Nc2nc(NCc3cccc(O)c3)c3nc[nH]c3n2)c1` [Example 73, N-{3-[6-(3-Hydroxy-benzylamino)-9H-purin-2-ylamino]-phenyl}-methanesulfonamide], the figure is 221 to 225 °C; as for `CS(=O)(=O)Nc1cccc(Nc2nc(NCc3cccc(C#N)c3)c3nc[nH]c3n2)c1` [Example 78, N-{3-[6-(3-Cyano-benzylamino)-9H-purin-2-ylamino]-phenyl}-methanesulfonamide], 128 to 131 °C.
With `CC(C)NCCNc1nc(Nc2cccc(NS(C)(=O)=O)c2)nc2[nH]ccc12` [Example 82, N-{3-[4-(2-Isopropylamino-ethylamino)-7H-pyrrolo[2,3-d]pyrimidin-2-ylamino]-phenyl}-methanesulfonamide] the figure was 127 to 131 °C; with `CC(C)[C@@H](CO)Nc1nc(Nc2cccc(NS(C)(=O)=O)c2)nc2[nH]ccc12` [Example 84, N-{3-[4-((S)-1-Hydroxymethyl-2-methyl-propylamino)-7H-pyrrolo[2,3-d]pyrimidin-2-ylamino]-phenyl}-methanesulfonamide], 106 to 109 °C; with `CC(C)N(CCO)c1nc(Nc2cccc(NS(C)(=O)=O)c2)nc2[nH]ccc12` [Example 87, N-(3-{4-[(2-Hydroxy-ethyl)-isopropyl-amino]-7H-pyrrolo[2,3-d]pyrimidin-2-ylamino}-phenyl)-methanesulfonamide], 129 to 132 °C.
With `CC[C@H](Nc1nc(Nc2cccc(NS(C)(=O)=O)c2)nc2[nH]cnc12)c1ccccc1` [Example 92, N-{3-[6-((S)-1-Phenyl-propylamino)-9H-purin-2-ylamino]-phenyl}-methanesulfonamide] the figure was 138 to 141 °C; with `CS(=O)(=O)Nc1cccc(Nc2nc(NCc3ccccc3CO)c3nc[nH]c3n2)c1` [Example 93, N-{3-[6-(2-Hydroxymethyl-benzylamino)-9H-purin-2-ylamino]-phenyl}-methanesulfonamide], 145 to 148 °C; with `CS(=O)(=O)Nc1cccc(Nc2nc(NCc3ccccc3O)c3nc[nH]c3n2)c1` [Example 94, N-{3-[6-(2-Hydroxy-benzylamino)-9H-purin-2-ylamino]-phenyl}-methanesulfonamide], 168 to 171 °C.
`C=CS(=O)(=O)Nc1cccc(Nc2nc(N[C@H](C)C(C)(C)C)c3nc[nH]c3n2)c1` [Example 97, Ethenesulfonic acid {3-[6-((R)-1,2,2-trimethyl-propylamino)-9H-purin-2-ylamino]-phenyl}-amide] came in with a melting point of 133 to 136 °C.
